The target in one test is T1, MEKK6 (Homo sapiens, UniProt O95382).
T1 construct: purchased Reaction Biology Corp
T1 sequence (O95382 1-1288): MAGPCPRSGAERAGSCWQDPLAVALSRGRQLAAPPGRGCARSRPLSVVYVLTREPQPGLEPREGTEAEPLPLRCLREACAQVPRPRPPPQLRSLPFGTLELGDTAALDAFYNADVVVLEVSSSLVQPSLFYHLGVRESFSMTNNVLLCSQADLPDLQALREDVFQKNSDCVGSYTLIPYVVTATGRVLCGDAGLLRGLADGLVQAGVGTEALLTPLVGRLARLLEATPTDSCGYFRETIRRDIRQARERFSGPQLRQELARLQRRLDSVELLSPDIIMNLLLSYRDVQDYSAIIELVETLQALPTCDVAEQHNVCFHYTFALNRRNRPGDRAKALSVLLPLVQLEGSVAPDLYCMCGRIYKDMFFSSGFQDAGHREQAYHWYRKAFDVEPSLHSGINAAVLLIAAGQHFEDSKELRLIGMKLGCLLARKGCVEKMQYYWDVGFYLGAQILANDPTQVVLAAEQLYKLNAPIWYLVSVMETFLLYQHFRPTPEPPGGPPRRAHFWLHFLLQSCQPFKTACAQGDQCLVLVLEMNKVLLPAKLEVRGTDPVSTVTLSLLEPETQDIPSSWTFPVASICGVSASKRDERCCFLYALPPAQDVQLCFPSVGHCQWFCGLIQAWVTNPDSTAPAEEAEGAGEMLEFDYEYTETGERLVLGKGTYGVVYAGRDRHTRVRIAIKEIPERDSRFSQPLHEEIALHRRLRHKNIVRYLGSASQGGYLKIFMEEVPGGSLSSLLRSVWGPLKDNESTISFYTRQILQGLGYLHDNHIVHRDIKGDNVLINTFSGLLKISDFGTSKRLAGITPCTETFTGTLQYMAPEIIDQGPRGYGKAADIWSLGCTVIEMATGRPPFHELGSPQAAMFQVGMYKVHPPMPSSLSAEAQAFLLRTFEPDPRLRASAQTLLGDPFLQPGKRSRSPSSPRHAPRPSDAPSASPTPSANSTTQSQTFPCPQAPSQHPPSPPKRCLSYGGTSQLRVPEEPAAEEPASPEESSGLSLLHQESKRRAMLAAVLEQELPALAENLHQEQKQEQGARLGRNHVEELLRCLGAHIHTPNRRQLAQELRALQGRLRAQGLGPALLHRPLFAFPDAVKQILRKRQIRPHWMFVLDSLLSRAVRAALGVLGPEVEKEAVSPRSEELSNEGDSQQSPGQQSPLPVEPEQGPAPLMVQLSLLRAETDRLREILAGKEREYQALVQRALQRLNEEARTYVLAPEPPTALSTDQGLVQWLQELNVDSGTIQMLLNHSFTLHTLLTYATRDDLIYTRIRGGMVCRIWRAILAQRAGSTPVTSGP
As to the kind of experiment: Kinase HotSpot profiling (Reaction Biology Corp.). The settings on record: ATP at Km. Type of test: biochemical. On the procedure: (§1) Kinase assays were performed by Invitrogen (now Thermo Fisher Scientific, Waltham, MA) or Reaction Biology Corp. (Malvern, PA). Inhibitory activity of compounds for TAK1 was evaluated using LanthaScreen® Eu Kinase Binding Assay (Invitrogen, Waltham, MA). The kinase profile of compound 13h was determined by the kinase HotSpot Profiling service of Reaction Biology Corporation. All assays were performed at Km for ATP.

A further test addresses T2, MINK1/MAP4K6 (Homo sapiens, UniProt Q8N4C8).
T2 construct: purchased Reaction Biology Corp
Put plainly: Kinase HotSpot profiling (Reaction Biology Corp.). Type of test: biochemical. The settings on record: ATP at Km. The method, then:
as §1

Another test deals with MDA-MB-231 cells. As to the kind of experiment: Caspase-3/7 assay (Apo-ONE). It counts as cell-based. The note with it: 0.5 µM, presence of TNFα (10 ng/ml), 24 h, MDA-MB-231. On the procedure:
MDA-MB-231 cells were obtained from the Korean Cell Line Bank. Cells were cultured in Roswell Park Memorial Institute (RPMI) 1640 medium containing 10% foetal bovine serum and 1% penicillin/streptomycin at 37 °C with 5% CO2 under humidified atmosphere.
The assay was performed using Apo-ONE® Homogeneous Caspase-3/7 Assay kits (Catalogue No. G7790, Promega, Madison, WI). MDA-MB-231 cells in a concentration of 5000 cells/100 µl were seeded in each well of a black 96-well plate and starved after adhering to the plate. The cells were incubated for 24 h, and the serum-starved cells were treated with either Takinib or 13h in the presence or absence of TNFα (10 ng/ml). All samples and the control contained DMSO in a final concentration of 0.5%. After another 24 h of incubation, 100 µL of Apo-ONE® caspase-3/7 reagent was added to each well, and the cells were incubated at room temperature in darkness for 2 h. Fluorescence was then measured at 530 nm with excitation at 485 nm using a FlexStation 3 Multi-Mode microplate reader (Molecular Devices). Statistical analyses of the data included a one-way ANOVA, followed by Tukey’s multiple comparison test.

T2 sequence (Q8N4C8 whole entry): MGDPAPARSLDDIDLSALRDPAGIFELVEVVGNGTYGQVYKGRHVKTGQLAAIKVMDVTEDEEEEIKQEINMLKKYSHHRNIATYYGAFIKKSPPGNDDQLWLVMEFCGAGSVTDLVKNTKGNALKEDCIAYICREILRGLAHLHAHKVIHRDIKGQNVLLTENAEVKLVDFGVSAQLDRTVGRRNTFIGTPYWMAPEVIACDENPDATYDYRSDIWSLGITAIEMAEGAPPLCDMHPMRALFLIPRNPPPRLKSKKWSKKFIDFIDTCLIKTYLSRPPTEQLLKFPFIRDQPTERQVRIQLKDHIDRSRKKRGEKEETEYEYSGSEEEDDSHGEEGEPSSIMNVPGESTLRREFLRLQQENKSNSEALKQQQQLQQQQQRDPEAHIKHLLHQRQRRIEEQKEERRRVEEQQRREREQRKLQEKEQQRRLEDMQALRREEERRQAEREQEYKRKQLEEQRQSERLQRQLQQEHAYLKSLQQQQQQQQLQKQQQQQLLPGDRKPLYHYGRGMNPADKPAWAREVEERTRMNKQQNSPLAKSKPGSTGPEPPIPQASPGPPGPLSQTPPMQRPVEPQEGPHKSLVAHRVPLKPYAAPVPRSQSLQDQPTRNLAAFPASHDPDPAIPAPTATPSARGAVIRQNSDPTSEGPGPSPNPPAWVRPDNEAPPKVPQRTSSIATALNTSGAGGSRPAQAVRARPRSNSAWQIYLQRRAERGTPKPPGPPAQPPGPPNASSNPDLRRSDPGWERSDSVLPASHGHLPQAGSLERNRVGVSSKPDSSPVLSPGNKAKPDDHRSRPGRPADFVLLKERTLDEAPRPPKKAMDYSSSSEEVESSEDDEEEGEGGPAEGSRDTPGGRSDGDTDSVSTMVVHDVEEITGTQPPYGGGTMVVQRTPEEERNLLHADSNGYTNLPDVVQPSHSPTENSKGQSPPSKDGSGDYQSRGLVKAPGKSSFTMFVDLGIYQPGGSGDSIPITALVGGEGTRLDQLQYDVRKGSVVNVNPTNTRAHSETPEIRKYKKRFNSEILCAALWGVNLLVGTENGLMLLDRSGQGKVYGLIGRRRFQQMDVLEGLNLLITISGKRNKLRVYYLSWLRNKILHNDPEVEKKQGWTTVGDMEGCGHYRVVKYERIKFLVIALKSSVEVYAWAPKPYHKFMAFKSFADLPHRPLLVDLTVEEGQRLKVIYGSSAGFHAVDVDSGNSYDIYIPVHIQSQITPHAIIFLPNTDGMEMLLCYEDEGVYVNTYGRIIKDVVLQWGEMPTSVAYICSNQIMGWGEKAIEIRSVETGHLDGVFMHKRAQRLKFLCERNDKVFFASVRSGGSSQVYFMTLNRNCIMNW

As usually defined, the inhibition is how much of the control response was suppressed. Read a low inhibition as little suppression. Take `Cc1cccc(/C=C(\C#N)C(=O)N[C@@H]2CCN(c3c(Cl)cnc4[nH]c(-c5ccc(N6CCN(C)CC6)cc5)nc34)C2)n1` [Compound 13h, (R,E)-N-(1–(6-chloro-2–(4-(4-methylpiperazin-1-yl)phenyl)-3H-imidazo[4,5-b]pyridin-7-yl)pyrrolidin-3-yl)-2-cyano-3-(6-methylpyridin-2-yl)acrylamide]: the inhibition at 1 µM was 0% at MEKK6 and 15 ± 2.4% at MINK1/MAP4K6. Moreover, the caspase-3/7 activity result with MDA-MB-231 cells was “induced significant caspase activation”.

The values above are taken from PMC7594721, “Synthesis and biological activity of 2-cyanoacrylamide derivatives tethered to imidazopyridine as TAK1 inhibitors” (Journal of Enzyme Inhibition and Medicinal Chemistry, 2020).
